Laboratory results: paper PMC3045849 (Bioorganic & medicinal chemistry letters, 2009)
Non-standard residues stand in square brackets, D forms with d. Residues, ends and D or L forms follow the SMILES beside them. *: point of attachment. Asu = N[C@@H](CCCCCC(=O)O)C(=O)O; NH(2-NH2-phenyl) = Nc1ccccc1N*

Columns and labels:
[1] = tested on: human lymphoblastoid cell line (GM15850); assay: Acetylation levels of endogenous histone H3 by western blot; type: cell-based; settings: 20 µM, 48 h incubation, GM15850 cells
[2] = biological target: recombinant human HDAC3 (Homo sapiens, UniProt O15379); assay: Inhibition of recombinant HDAC3; type: biochemical
Sequence of recombinant human HDAC3 (O15379 whole entry): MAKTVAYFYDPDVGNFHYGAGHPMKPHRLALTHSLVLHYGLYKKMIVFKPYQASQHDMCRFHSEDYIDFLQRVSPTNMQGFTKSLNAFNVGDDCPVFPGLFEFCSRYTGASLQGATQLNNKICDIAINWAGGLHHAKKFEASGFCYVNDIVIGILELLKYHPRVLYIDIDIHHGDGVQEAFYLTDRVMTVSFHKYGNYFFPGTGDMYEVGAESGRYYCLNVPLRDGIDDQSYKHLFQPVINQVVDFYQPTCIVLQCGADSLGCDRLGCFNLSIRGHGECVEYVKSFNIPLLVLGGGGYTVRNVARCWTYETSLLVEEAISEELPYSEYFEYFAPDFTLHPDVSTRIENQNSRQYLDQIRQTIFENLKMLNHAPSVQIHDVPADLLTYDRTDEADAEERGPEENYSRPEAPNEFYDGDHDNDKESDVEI
Sequence of recombinant human HDAC3 (Q9Y618 395-489 partner limits assumed): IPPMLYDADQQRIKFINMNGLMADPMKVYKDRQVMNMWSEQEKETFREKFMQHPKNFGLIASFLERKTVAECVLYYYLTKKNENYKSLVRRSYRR

[3] = biological target: recombinant human HDAC1 (Homo sapiens, UniProt Q13547); assay: Inhibition of recombinant HDAC1; type: biochemical
Sequence of recombinant human HDAC1 (Q13547 whole entry): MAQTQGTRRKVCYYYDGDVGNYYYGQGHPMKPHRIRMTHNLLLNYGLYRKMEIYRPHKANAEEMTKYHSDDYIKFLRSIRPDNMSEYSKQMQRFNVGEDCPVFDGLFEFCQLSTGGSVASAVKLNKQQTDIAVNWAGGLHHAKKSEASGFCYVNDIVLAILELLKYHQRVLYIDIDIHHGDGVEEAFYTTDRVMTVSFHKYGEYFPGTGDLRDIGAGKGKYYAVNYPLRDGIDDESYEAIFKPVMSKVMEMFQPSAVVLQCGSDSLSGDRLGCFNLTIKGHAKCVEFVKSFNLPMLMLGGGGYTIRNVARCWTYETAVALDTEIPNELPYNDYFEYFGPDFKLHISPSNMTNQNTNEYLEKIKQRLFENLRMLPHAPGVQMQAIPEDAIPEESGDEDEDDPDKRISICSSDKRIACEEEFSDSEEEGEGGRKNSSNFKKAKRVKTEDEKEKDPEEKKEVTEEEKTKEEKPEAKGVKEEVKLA

Compound | effect on acetylation of endogenous histone H3 [1] | IC50 [2] | IC50 [3]
N=C(N)NCCC[C@H](N)C(=O)NCC(=O)N[C@@H](CCCCCC(=O)Nc1ccccc1N)C(=O)Nc1ccccc1N [compound 10] | relatively stronger effects |  | 
N=C(N)NCCC[C@H](N)C(=O)NCC(=O)N[C@@H](CCCCCC(=O)Nc1ccccc1N)C(=O)NCC(=O)O [compound 13] (H-RG[Asu](NH(2-NH2-phenyl))G-OH; N-terminus and C-terminus assumed) | no effect | 69.3 µM | 532 µM
Cc1ccc(C(=O)NCC(=O)NCCC(=O)Nc2ccccc2N)cc1 [compound 15] | relatively strong effect |  | 
Cc1ccc(C(=O)N[C@@H](CCCNC(=N)N)C(=O)NCCC(=O)Nc2ccccc2N)cc1 [compound 16] | no such effect |  | 
